Reference: patent publication EP0236477B1 (priority 1985, dated 1987)

What was measured:
[1] = Duration of opioid antagonistic activity (general statements); type: in vivo; conditions: intravenously injectable
[2] = cited from earlier work; for potency relative to naloxone: in vivo
[3] = plasma of a patient; cited from earlier work

| Structure (SMILES) | duration of antagonistic activity [1] | potency relative to naloxone [2] | potency as an antagonist relative to naltrexon ([2]; intravenous route) | time a pharmacologically active concentration can remain in the plasma [3] |
| --- | --- | --- | --- | --- |
| C=C1CC[C@@]2(O)[C@H]3Cc4ccc(O)c5c4[C@@]2(CCN3CC2CC2)[C@H]1O5 [6-methylene-6-desoxy-N-cyclopropylmethyl-14-hydroxydihydronormorphine] | at least 6 hours | significantly more potent | about four times more potent | three days |
| O=C1CC[C@@]2(O)[C@H]3Cc4ccc(O)c5c4[C@@]2(CCN3CC2CC2)[C@H]1O5 [naltrexon, reference compound] |  | significantly more potent |  |  |
